Laboratory results: PubChem BioAssay AID2060890 (Molecular Pharmacology Branch, DTP, NCI, 2025)
pIC50: −log10 of the molar value.

Tested on: LG0703-F948-PDC complex spheroid viability
Experiment: Anticancer human tumor LG0703-F948-PDC patient-derived lung adenocarcinoma cell line growth inhibition [RAS]
Settings: for pIC50: curve of first compound; for viability, T/C: stronger effect = lower value
Procedure, shortened: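 Tumour cells grown as complex spheroids with HUVEC endothelial cells and mesenchymal stem cells, treated with RAS pathway inhibitor combinations. Each agent spans half-log steps from near clinical Cmax, or 10 microM where Cmax is unknown.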

[1] = second compound 0.00316 µM, first compound 0.00316 µM
[2] = second compound 0.00316 µM, first compound 0.01 µM
[3] = second compound 0.00316 µM, first compound 0.0316 µM
[4] = second compound 0.00316 µM, first compound 0.1 µM
[5] = second compound 0.00316 µM, first compound 0.316 µM
[6] = second compound 0.00316 µM, first compound 1 µM
[7] = second compound 0.01 µM, first compound 0.00316 µM
[8] = second compound 0.01 µM, first compound 0.01 µM
[9] = second compound 0.01 µM, first compound 0.0316 µM
[10] = second compound 0.01 µM, first compound 0.1 µM
[11] = second compound 0.01 µM, first compound 0.316 µM
[12] = second compound 0.01 µM, first compound 1 µM
[13] = second compound 0.0316 µM, first compound 0.00316 µM
[14] = second compound 0.0316 µM, first compound 0.01 µM
[15] = second compound 0.0316 µM, first compound 0.0316 µM
[16] = second compound 0.0316 µM, first compound 0.1 µM
[17] = second compound 0.0316 µM, first compound 0.316 µM
[18] = second compound 0.0316 µM, first compound 1 µM
[19] = second compound 0.1 µM, first compound 0.00316 µM
[20] = second compound 0.1 µM, first compound 0.01 µM
[21] = second compound 0.1 µM, first compound 0.0316 µM
[22] = second compound 0.1 µM, first compound 0.1 µM
[23] = second compound 0.1 µM, first compound 0.316 µM
[24] = second compound 0.1 µM, first compound 1 µM
[25] = second compound 0.316 µM, first compound 0.00316 µM
[26] = second compound 0.316 µM, first compound 0.01 µM
[27] = second compound 0.316 µM, first compound 0.0316 µM
[28] = second compound 0.316 µM, first compound 0.1 µM
[29] = second compound 0.316 µM, first compound 0.316 µM
[30] = second compound 0.316 µM, first compound 1 µM
[31] = second compound 1 µM, first compound 0.00316 µM
[32] = second compound 1 µM, first compound 0.01 µM
[33] = second compound 1 µM, first compound 0.0316 µM
[34] = second compound 1 µM, first compound 0.1 µM
[35] = second compound 1 µM, first compound 0.316 µM
[36] = second compound 1 µM, first compound 1 µM
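Also: spheroids exposed to agents for 7 days.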
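For viability, T/C in this document: 100% = DMSO vehicle wells.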

SMILES: Nc1ccn(C2OC(CO)C(O)C2(F)F)c(=O)n1 (centres undefined) + C=CC(=O)N1CCN(c2nc(OCC3CCCN3C)nc3c(F)c(-c4nc(N)cc(C)c4C(F)(F)F)c(Cl)cc23)C(C)C1
- pIC50 (second compound 0.00316 µM): 8.31
- pIC50 (second compound 0.01 µM): 8.31
- pIC50 (second compound 0.0316 µM): 8.26
- pIC50 (second compound 0.1 µM): 8.27
- pIC50 (second compound 0.316 µM): 8.22
- pIC50 (second compound 1 µM): 8.23
- viability, T/C [1]: 57.6%
- viability, T/C [2]: 38.4%
- viability, T/C [3]: 27.3%
- viability, T/C [4]: 28.2%
- viability, T/C [5]: 29.4%
- viability, T/C [6]: 6.7%
- viability, T/C [7]: 58.7%
- viability, T/C [8]: 36.9%
- viability, T/C [9]: 25.1%
- viability, T/C [10]: 25.1%
- viability, T/C [11]: 24.6%
- viability, T/C [12]: 21.7%
- viability, T/C [13]: 61.6%
- viability, T/C [14]: 36.7%
- viability, T/C [15]: 30.1%
- viability, T/C [16]: 24%
- viability, T/C [17]: 24.1%
- viability, T/C [18]: 23.3%
- viability, T/C [19]: 62.1%
- viability, T/C [20]: 35.4%
- viability, T/C [21]: 26.8%
- viability, T/C [22]: 26.3%
- viability, T/C [23]: 26.8%
- viability, T/C [24]: 22.7%
- viability, T/C [25]: 74.2%
- viability, T/C [26]: 30%
- viability, T/C [27]: 29.9%
- viability, T/C [28]: 25.3%
- viability, T/C [29]: 27.1%
- viability, T/C [30]: 29.1%
- viability, T/C [31]: 63%
- viability, T/C [32]: 38.3%
- viability, T/C [33]: 29%
- viability, T/C [34]: 30.1%
- viability, T/C [35]: 25.2%
- viability, T/C [36]: 21.4%

SMILES: C=CC(=O)Nc1cc(Nc2nccc(-c3cn(C)c4ccccc34)n2)c(OC)cc1N(C)CCN(C)C + C=CC(=O)N1CCN(c2nc(OCC3CCCN3C)nc3c(F)c(-c4nc(N)cc(C)c4C(F)(F)F)c(Cl)cc23)C(C)C1
- pIC50 (second compound 0.00316 µM): 8.14
- pIC50 (second compound 0.01 µM): 8.10
- pIC50 (second compound 0.0316 µM): 8.07
- pIC50 (second compound 0.1 µM): 8.08
- pIC50 (second compound 0.316 µM): 8.10
- pIC50 (second compound 1 µM): 8.08
- viability, T/C [1]: 75.2%
- viability, T/C [2]: 40.8%
- viability, T/C [3]: 16.2%
- viability, T/C [4]: 14.6%
- viability, T/C [5]: 10.9%
- viability, T/C [6]: 8.91%
- viability, T/C [7]: 79.8%
- viability, T/C [8]: 42.7%
- viability, T/C [9]: 16.9%
- viability, T/C [10]: 9.65%
- viability, T/C [11]: 8.46%
- viability, T/C [12]: 7.04%
- viability, T/C [13]: 79.7%
- viability, T/C [14]: 45%
- viability, T/C [15]: 16.2%
- viability, T/C [16]: 10.3%
- viability, T/C [17]: 10.2%
- viability, T/C [18]: 6.08%
- viability, T/C [19]: 86.3%
- viability, T/C [20]: 43%
- viability, T/C [21]: 14.8%
- viability, T/C [22]: 10.8%
- viability, T/C [23]: 9.54%
- viability, T/C [24]: 6.22%
- viability, T/C [25]: 79.2%
- viability, T/C [26]: 42.7%
- viability, T/C [27]: 17.4%
- viability, T/C [28]: 9.84%
- viability, T/C [29]: 9.21%
- viability, T/C [30]: 6.05%
- viability, T/C [31]: 79.5%
- viability, T/C [32]: 44.5%
- viability, T/C [33]: 15.7%
- viability, T/C [34]: 10.2%
- viability, T/C [35]: 9.74%
- viability, T/C [36]: 5.04%
